# Patent EP0383856B1, “USE OF PEPTIDES FOR INHIBITING BLOOD VESSEL BLOCKAGE” (SOCIETE DE CONSEILS DE […] D'APPLICATIONS SCIENTIFIQUES …, priority 1988, dated 1989)
# Values joined by “and” are separate entries in the source; they are usually repeats but may differ in a detail not shown here. Equal values may be shown once. Read-outs that look alike come from different tables or passages of the source.
# How the values were obtained:
# [1] = system: smooth muscle cell proliferation; assay: Primate balloon catheter injury of aorta and femoral arteries, smooth muscle cell proliferation; assay type: in vivo, cynomologous macaques; conditions: aorta and left and right femoral arteries; i.m. slow release system, total 50 µg/kg/day; one treated animal versus one control; five weeks
# Protocol: In order to obtain a primate coronary angioplasty model which would be suited for evaluation of Angiopeptin, a feasibility study was performed on primates which were made available from the colony at Bowman-Gray Medical School, Winston-Salem, North Carolina. These animals were culled from the colony due to failure of the primates to satisfactorily elevate blood lipids when administered a high cholesterol diet. Young male cynomologous macaques weighing approximately 3.5 kg were used after an equilibration period of more than a week in a primate facility.
# The animals were sedated with Ketamine and maintained with 1% halothane in oxygen. The aorta and femoral arteries were injured by a balloon catheter (USCI, Band). After five weeks the primates were anesthetized and sacrificed. The aorta and femoral arteries were removed and fixed in formaldehyde for morphometric analysis. […]
# The maximal intimal/media ratio (distance from lumen to internal elastic lamina/distance from internal elastic lamina to external elastic lamina) was determined in each vessel using a digitizing system attached to a light microscope. The determinations were done on three different cross sections of the vessel and each section was measured three times and each three measurements were averaged.
# [2] = system: myointimal proliferation of the carotid artery; assay: Air-drying injury of the rat carotid artery, myointimal proliferation (maximal intimal/media ratio, morphometry); assay type: in vivo, Sprague-Dawley rats
# Protocol: Male Sprague-Dawley rats, weighing […], obtained from Charles River were kept under controlled lighting conditions and fed rat chow and water ad libitum. Under sodium pentobarbital anesthesia the intima of the right carotid artery was subjected to an air-drying injury described by Fishman et al, Lab Invest., 32, 339 (1975). This procedure causes intimal hyperplasia that largely consists of proliferating intimal smooth muscle cells. In this model approximately 4 cm of the vessel is isolated and drained of blood. Air (20 ml/min) is blown through a 30 gauge needle for 5 min whereafter blood flow is reestablished. The contralateral carotid artery was also exposed but not air-dried. The rats were sacrificed 15 days later.
# The experiment consisted of a control group and ten treatment groups. The somatostatin analogs used were hepta- or octapeptides, namely BIM 23014 (Angiopeptin), BIM 23012, BIM 23027, BIM 23030 and BIM 23034. […] The animals were pretreated two days prior to the procedure and for a further five days following the endothelial injury. Two additional groups of animals were added in order to study whether Angiopeptin (20 µg/kg/day and 50 µg/kg/day) administered 30 min prior to the endothelial injury and for a further five days would protect against the myointimal proliferation.
# The animals were sacrificed on day 15 following the injury by exsanguination. The vascular system was flushed with normal saline and perfusion-fixed at 80 mmHg with 10% formalin. The carotid arteries were subsequently fixed, embedded and sectioned for light microscopy and morphometric analysis. The maximal intimal/media ratio is the distance from the lumen to the internal elastic lamina and the distance from the internal elastic lamina to the external elastic lamina. The distances were determined in each vessel using a digitizing system attached to a light microscope. The determinations were performed on three different cross sections of the vessel and each section was measured three times. The mean was calculated for each vessel. Differences between the groups were evaluated using Student's unpaired t-test.
# [3] = system: myointimal cell proliferation in the aortas of rabbits; assay: Rabbit aorta 72 hours after balloon angioplasty: wet weight, protein, DNA/protein, 3-H thymidine incorporation; assay type: in vivo, New Zealand White Rabbits; conditions: for Levels of Proteins (total protein content of the injured aortas): Fig. 2; for DNA/Protein Ratio: Fig. 3; for Thymidine (3-H) Incorporation (rates of cell proliferation): Fig. 4
# Protocol: New Zealand White Rabbits were anesthetised with Rompun (Xylazine) and Ketalar (Ketamine) and a cannula (3F Fogarty) was inserted from the femoral artery. The balloon was inflated at a constant pressure and the aorta was deendothelialised by angioplasty. The process was repeated three times and the wound site was closed. The animals were sacrificed 72 hours after balloon angioplasty and after removing the adventitia the aorta was cut into fine rings. These rings were incubated in the presence of 3-H thymidine and the radioactivity was determined after processing the tissue. Simultaneous measurements of DNA and protein contents were also made in these tissues.
# Eight injections of Angiopeptin were made: on the morning and evening of the day prior to ballooning; two on the day of the procedure; and two on each of the following two days. The total daily dose was 2, 20, or 200 µg/Kg body weight.
# [4] = system: growth hormone release; conditions: in vivo, from Heiman et al., Coy et al., Tolis et al., cited from earlier work
# [5] = system: Myointimal Hyperplasia; assay: Myointimal hyperplasia in rabbits after balloon angioplasty of iliac artery and aorta (morphometry); assay type: in vivo, white New Zealand rabbits; conditions: for percentage of inhibition of myointimal hyperplasia: 20 µg/kg/d; for % Intimal hyperplasia, Mean: group mean; for % Intimal hyperplasia: individual samples
# Protocol: Female and Male, white New Zealand rabbits (2.8-3.0 kg) were divided into two groups (A and B). Group A (vehicle control) received subcutaneous injections of physiological saline (0.2 ml) twice daily. […] The animals were treated the day before angioplasty, and until sacrifice about 3 weeks later. The angioplasty was done under general anesthesia with Ketamine and Xylazine. Each animal's left iliac artery and aorta were denuded with an angioplasty catheter (Fogarty). The angioplasty catheter was inserted into the left femoral artery and passed through the vessel to the thoracic aorta. The catheter was then reciprocated three times. The animals were all sacrificed from days 22-24 after angioplasty. The aorta and iliac arteries were fixed in situ via perfusion with formaldehyde under constant perfusion pressure.
# Intimal hyperplasia was determined on elastin-stained (Van Giesen) horizontally-cut sections. The sections were obtained from (i) the aorta at the level of the renal artery, (ii) the common iliac artery at the level of bifurcation, and (iii) the external iliac artery just above the inguinal ligament. The area of intimal hyperplasia and total vessel area were determined by morphometry. The percentage of intimal hyperplasia was expressed as follows: [formula] Single determinations were made on three segments of each aorta and the two iliac arteries of each animal. The percentage of intimal hyperplasia was determined as the mean of the two closest measurements of each vessel.
# [6] = system: smooth muscle pig left coronary artery explants; assay: H3-thymidine incorporation in denuded pig left coronary artery explants; assay type: cell-based, Domestic pig; conditions: 24 hr, individual segments
# Protocol: Domestic pig hearts were obtained from a slaughter house immediately after the animals were sacrificed. The hearts were harvested and placed in ice-cold Kreb's Ringer buffer and transported to the laboratory. The left coronary artery (LAD) was dissected in aseptic conditions and divided into pieces of 5 mm. The segments were denuded from the endothelium by gently introducing a metallic rod in the lumen. The tissues were placed in sterile multiwell culture dishes in 1 ml of culture media (DMEM with antibiotics) and without fetal calf serum. H³-thymidine (2.5 uCi/ml) and increasing concentrations of angiopeptin (10-1000 ng/ml) were added to the medium. Segments which were incubated with 3 different concentrations of forskolin were used as a positive control in each experiment. The incubation period was 24 hr at 37°C and 5% CO₂. The tissues were washed with phosphate saline buffer and placed in a solution of cold thymidine for one hour and then frozen in liquid nitrogen, ground and lysed with a hypotonic solution. The lysed tissues were further incubated with proteinase K overnight at 50°C. The radioactivity, content of protein and DNA were measured.
# [7] = common iliac artery, female rabbits
# [8] = common iliac artery, male rabbits
# [9] = external iliac artery, female rabbits
# [10] = external iliac artery, male rabbits
smiles,measurement,setting,value
"CC(C)[C@@H]1NC(=O)[C@H](CCCCN)NC(=O)[C@@H](Cc2c[nH]c3ccccc23)NC(=O)[C@H](Cc2ccc(O)cc2)NC(=O)[C@@H](NC(=O)[C@H](N)Cc2ccc3ccccc3c2)CSSC[C@@H](C(=O)N[C@H](C(N)=O)[C@@H](C)O)NC1=O [Angiopeptin, D-Nal-Cys-Tyr-D-Trp-Lys-Val-Cys-Thr-NH₂]",inhibition of smooth muscle cell proliferation,[1],nearly complete inhibition
same,myointimal proliferation of the carotid artery following endothelial injury by air drying,"[2]; 20 µg/kg/day s.c. in two divided doses, from two days prior to injury and five days after, sacrifice day 15",effective
same,myointimal proliferation of the carotid artery following endothelial injury by air drying,"[2]; 50 µg/kg/day s.c. in two divided doses, from two days prior to injury and five days after, sacrifice day 15",effective
same,myointimal proliferation,"[2]; 50 µg/kg/day, started 30 min prior to the arterial injury and for a further five days",significantly (p<0.01) inhibited
same,myointimal proliferation of the carotid artery following endothelial injury by air drying,"[2]; overall statement for the doses used (20 and 50 µg/kg/day s.c.), started two days prior to injury",inhibited significantly (P<0.01)
same,Levels of Proteins (total protein content of the injured aortas),[3]; 2 µg/kg body wt.,lowered the total protein content
same,DNA/Protein Ratio,[3]; 20 µg/kg body weight,significantly lowered
same,Thymidine (3-H) Incorporation (rates of cell proliferation),[3]; 20 µg/kg body wt.,significantly lower
same,DNA/Protein Ratio,[3]; 200 µg/kg body wt.,reflected the inhibitory influence
same,Thymidine (3-H) Incorporation (rates of cell proliferation),[3]; 200 µg/kg,still inhibited the myointimal proliferation
same,Wet Weight of aortas,"[3]; 2, 20 and 200 µg/kg body wt. daily, 72 hours after balloon angioplasty, Fig. 1",does not seem to influence
same,Levels of Proteins (total protein content of the injured aortas),[3]; higher doses (20 and 200 µg/kg body wt.),did not affect the levels of total proteins
same,inhibition of growth hormone release,[4],less active
same,inhibition of growth hormone release,[4]; listed as BIM 23014,potent inhibitors of growth hormone release
same,percentage of inhibition of myointimal hyperplasia,"[5]; aorta, female rabbits",~43%
same,"% Intimal hyperplasia, Mean","[5]; aorta, female rabbits",12.5%
same,% Intimal hyperplasia,"[5]; aorta, female rabbits",13.0% and 10.7% and 12.8% and 19.5% and 6.4%
same,percentage of inhibition of myointimal hyperplasia,"[5]; aorta, male rabbits",~32%
same,"% Intimal hyperplasia, Mean","[5]; aorta, male rabbits",14.8%
same,% Intimal hyperplasia,"[5]; aorta, male rabbits",15.9% and 17.0% and 12.4% and 13.3% and 13.8% and 15.7% (2×)
same,percentage of inhibition of myointimal hyperplasia,[5]; [7],~33%
same,"% Intimal hyperplasia, Mean",[5]; [7],13.1%
same,% Intimal hyperplasia,[5]; [7],6.5% and 9.3% and 9.5% and 19.7% and 20.5% and 15.3% and 16.6% and 7.7%
same,percentage of inhibition of myointimal hyperplasia,[5]; [8],~39%
same,"% Intimal hyperplasia, Mean",[5]; [8],14.1%
same,% Intimal hyperplasia,[5]; [8],14.9% and 16.0% and 6.4% and 17.4% and 13.9% and 15.8% and 14.0%
same,percentage of inhibition of myointimal hyperplasia,[5]; [9],about 41%
same,"% Intimal hyperplasia, Mean",[5]; [9],20.7%
same,% Intimal hyperplasia,[5]; [9],17.8% and 26.4% and 15.2% and 21.3% and 33.6% and 24.1% and 20.6% and 6.6%
same,percentage of inhibition of myointimal hyperplasia,[5]; [10],~20%
same,"% Intimal hyperplasia, Mean",[5]; [10],24.4%
same,% Intimal hyperplasia,[5]; [10],30.5% and 19.2% and 25.7% and 26.5% and 22.3% and 37.9% and 22.2%
same,CPM,[6]; Angiopeptin 10 ng/ml,35113.84 CPM and 46392.32 CPM and 27312.80 CPM and 55980.00 CPM
same,CPM,[6]; Angiopeptin 20 ng/ml,26279.81 CPM and 39027.27 CPM and 39706.01 CPM and 21562.08 CPM
same,CPM,[6]; Angiopeptin 50 ng/ml,24269.18 CPM and 40768.09 CPM and 18983.78 CPM and 18942.16 CPM
same,CPM,[6]; Angiopeptin 100 ng/ml,20794.85 CPM and 32402.31 CPM and 22033.48 CPM and 26227.64 CPM
same,CPM,[6]; Angiopeptin […] (so in the source),18325.51 CPM and 27260.98 CPM and 30226.99 CPM and 32344.58 CPM
